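Each compound was tested at five concentrations against cells in 96-well plates for 48 hours. The concentration for 50% growth inhibition is given as GI50. The concentration for full growth arrest is given as TGI.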
How the values were obtained:
Experiment in all cases: NCI-60 cell line screen, 48 h
RPMI-8226 leukemia = test system: RPMI-8226 leukemia
SN12C renal = test system: SN12C renal
SK-OV-3 ovarian = test system: SK-OV-3 ovarian
EKVX NSCLC = test system: EKVX NSCLC
UO-31 renal = test system: UO-31 renal
CAKI-1 renal = test system: CAKI-1 renal
KM12 colon = test system: KM12 colon
K-562 leukemia = test system: K-562 leukemia
A498 renal = test system: A498 renal
UACC-62 melanoma = test system: UACC-62 melanoma
ACHN renal = test system: ACHN renal
RXF 393 renal = test system: RXF 393 renal
SW-620 colon = test system: SW-620 colon
SR leukemia = test system: SR leukemia
U251 CNS = test system: U251 CNS
MDA-MB-231 breast = test system: MDA-MB-231 breast
PC-3 prostate = test system: PC-3 prostate
TK-10 renal = test system: TK-10 renal
OVCAR-8 ovarian = test system: OVCAR-8 ovarian
COLO 205 colon = test system: COLO 205 colon
MDA-MB-468 breast = test system: MDA-MB-468 breast
OVCAR-5 ovarian = test system: OVCAR-5 ovarian
HOP-62 NSCLC = test system: HOP-62 NSCLC
M14 melanoma = test system: M14 melanoma
NCI-H226 lung = test system: NCI-H226 lung
SK-MEL-2 melanoma = test system: SK-MEL-2 melanoma
SK-MEL-28 melanoma = test system: SK-MEL-28 melanoma
SF-295 CNS = test system: SF-295 CNS
HL-60(TB) leukemia = test system: HL-60(TB) leukemia
HOP-92 NSCLC = test system: HOP-92 NSCLC
786-0 renal = test system: 786-0 renal
DU-145 prostate = test system: DU-145 prostate
BT-549 breast = test system: BT-549 breast
CCRF-CEM leukemia = test system: CCRF-CEM leukemia
NCI-H460 lung = test system: NCI-H460 lung
OVCAR-3 ovarian = test system: OVCAR-3 ovarian
OVCAR-4 ovarian = test system: OVCAR-4 ovarian
SF-539 CNS = test system: SF-539 CNS
NCI-H522 lung = test system: NCI-H522 lung
UACC-257 melanoma = test system: UACC-257 melanoma
NCI/ADR-RES ovarian = test system: NCI/ADR-RES ovarian
SNB-19 CNS = test system: SNB-19 CNS
MDA-MB-435 = test system: MDA-MB-435
HCT-116 colon = test system: HCT-116 colon
NCI-H23 lung = test system: NCI-H23 lung
A549 NSCLC = test system: A549 NSCLC
HS 578T breast = test system: HS 578T breast
MCF7 breast = test system: MCF7 breast
HCC-2998 colon = test system: HCC-2998 colon
SK-MEL-5 melanoma = test system: SK-MEL-5 melanoma
SF-268 CNS = test system: SF-268 CNS
LOX IMVI melanoma = test system: LOX IMVI melanoma
HCT-15 colon = test system: HCT-15 colon
MOLT-4 leukemia = test system: MOLT-4 leukemia
IGROV1 ovarian = test system: IGROV1 ovarian
T-47D breast = test system: T-47D breast
MALME-3M melanoma = test system: MALME-3M melanoma
HT29 colon = test system: HT29 colon
SNB-75 CNS = test system: SNB-75 CNS

Work on `COc1ccc(CN2[C@H](C(=O)NCCCCCCC(=O)NO)Cc3c([nH]c4ccccc34)[C@H]2C2CC2)cc1` yielded a GI50 (RPMI-8226 leukemia) of 1870 nM, a TGI (RPMI-8226 leukemia) greater than 20000 nM and a GI50 (SN12C renal) of 2190 nM. It also gave a TGI (SN12C renal) of 8580 nM, a GI50 (SK-OV-3 ovarian) of 1170 nM and a TGI (SK-OV-3 ovarian) of 3280 nM. The GI50 (EKVX NSCLC) was 2250 nM, the TGI (EKVX NSCLC) was greater than 20000 nM and the GI50 (UO-31 renal) was 2280 nM. The TGI (UO-31 renal) was 9500 nM, the GI50 (CAKI-1 renal) was 1480 nM and the TGI (CAKI-1 renal) was 7560 nM. For the same compound, the GI50 (KM12 colon) was 2140 nM, the TGI (KM12 colon) was greater than 14200 nM and the GI50 (K-562 leukemia) was 1860 nM. The TGI (K-562 leukemia) was greater than 20000 nM, the GI50 (A498 renal) was 1130 nM and the TGI (A498 renal) was 4200 nM. The GI50 (UACC-62 melanoma) was 1010 nM, the TGI (UACC-62 melanoma) was 2560 nM and the GI50 (ACHN renal) was 1720 nM. It also gave a TGI (ACHN renal) of 6110 nM, a GI50 (RXF 393 renal) of 898 nM and a TGI (RXF 393 renal) of 2450 nM. The GI50 (SW-620 colon) was 1150 nM, the TGI (SW-620 colon) was 3530 nM and the GI50 (SR leukemia) was 1120 nM. It also gave a TGI (SR leukemia) greater than 20000 nM, a GI50 (U251 CNS) of 1810 nM and a TGI (U251 CNS) of 7260 nM. The GI50 (MDA-MB-231 breast) was 1410 nM, the TGI (MDA-MB-231 breast) was 4200 nM and the GI50 (PC-3 prostate) was 1880 nM. It also gave a TGI (PC-3 prostate) greater than 20000 nM, a GI50 (TK-10 renal) of 1390 nM and a TGI (TK-10 renal) of 7360 nM. The GI50 (OVCAR-8 ovarian) was 1950 nM, the TGI (OVCAR-8 ovarian) was greater than 10200 nM and the GI50 (COLO 205 colon) was 1630 nM. For the same compound, the TGI (COLO 205 colon) was 4870 nM, the GI50 (MDA-MB-468 breast) was 1020 nM and the TGI (MDA-MB-468 breast) was greater than 5340 nM. For the same compound, the GI50 (OVCAR-5 ovarian) was 1090 nM, the TGI (OVCAR-5 ovarian) was 3180 nM and the GI50 (HOP-62 NSCLC) was 2160 nM. It also gave a TGI (HOP-62 NSCLC) greater than 10600 nM, a GI50 (M14 melanoma) of 2020 nM and a TGI (M14 melanoma) greater than 20000 nM. For the same compound, the GI50 (NCI-H226 lung) was 2900 nM, the TGI (NCI-H226 lung) was greater than 16500 nM and the GI50 (SK-MEL-2 melanoma) was 998 nM. The TGI (SK-MEL-2 melanoma) was 18100 nM, the GI50 (SK-MEL-28 melanoma) was 1660 nM and the TGI (SK-MEL-28 melanoma) was 6850 nM. It also gave a GI50 (SF-295 CNS) of 1420 nM, a TGI (SF-295 CNS) of 4330 nM and a GI50 (HL-60(TB) leukemia) of 2120 nM. For the same compound, the TGI (HL-60(TB) leukemia) was greater than 20000 nM, the GI50 (HOP-92 NSCLC) was 1290 nM and the TGI (HOP-92 NSCLC) was 4380 nM. It also gave a GI50 (786-0 renal) of 3390 nM, a TGI (786-0 renal) greater than 20000 nM and a GI50 (DU-145 prostate) of 2120 nM. For the same compound, the TGI (DU-145 prostate) was greater than 20000 nM, the GI50 (BT-549 breast) was 5340 nM and the TGI (BT-549 breast) was greater than 19100 nM. The GI50 (CCRF-CEM leukemia) was 1250 nM, the TGI (CCRF-CEM leukemia) was greater than 20000 nM and the GI50 (NCI-H460 lung) was 1780 nM. The TGI (NCI-H460 lung) was greater than 20000 nM, the GI50 (OVCAR-3 ovarian) was 1890 nM and the TGI (OVCAR-3 ovarian) was 8380 nM. The GI50 (OVCAR-4 ovarian) was 5240 nM, the TGI (OVCAR-4 ovarian) was greater than 20000 nM and the GI50 (SF-539 CNS) was 1820 nM. The TGI (SF-539 CNS) was 8740 nM, the GI50 (NCI-H522 lung) was 1330 nM and the TGI (NCI-H522 lung) was 5210 nM. The GI50 (UACC-257 melanoma) was 1760 nM, the TGI (UACC-257 melanoma) was greater than 9720 nM and the GI50 (NCI/ADR-RES ovarian) was 5420 nM. The TGI (NCI/ADR-RES ovarian) was greater than 20000 nM, the GI50 (SNB-19 CNS) was 2110 nM and the TGI (SNB-19 CNS) was 12500 nM. It also gave a GI50 (MDA-MB-435) of 1160 nM, a TGI (MDA-MB-435) of 3490 nM and a GI50 (HCT-116 colon) of 1160 nM. It also gave a TGI (HCT-116 colon) greater than 13300 nM, a GI50 (NCI-H23 lung) of 1880 nM and a TGI (NCI-H23 lung) of 8190 nM. It also gave a GI50 (A549 NSCLC) of 2150 nM, a TGI (A549 NSCLC) greater than 13000 nM and a GI50 (HS 578T breast) of 1650 nM. For the same compound, the TGI (HS 578T breast) was 10700 nM, the GI50 (MCF7 breast) was 1800 nM and the TGI (MCF7 breast) was greater than 16100 nM. The GI50 (HCC-2998 colon) was 1610 nM, the TGI (HCC-2998 colon) was 4550 nM and the GI50 (SK-MEL-5 melanoma) was 1250 nM. For the same compound, the TGI (SK-MEL-5 melanoma) was 2970 nM, the GI50 (SF-268 CNS) was 2870 nM and the TGI (SF-268 CNS) was greater than 13700 nM. The GI50 (LOX IMVI melanoma) was 1310 nM, the TGI (LOX IMVI melanoma) was 3590 nM and the GI50 (HCT-15 colon) was 4340 nM. It also gave a TGI (HCT-15 colon) greater than 16500 nM, a GI50 (MOLT-4 leukemia) of 1960 nM and a TGI (MOLT-4 leukemia) greater than 20000 nM. It also gave a GI50 (IGROV1 ovarian) of 1410 nM, a TGI (IGROV1 ovarian) of 4690 nM and a GI50 (T-47D breast) of 1520 nM. For the same compound, the TGI (T-47D breast) was 4710 nM, the GI50 (MALME-3M melanoma) was 946 nM and the TGI (MALME-3M melanoma) was 3840 nM. It also gave a GI50 (HT29 colon) of 1350 nM, a TGI (HT29 colon) of 10600 nM and a GI50 (SNB-75 CNS) of 397 nM. For the same compound, the TGI (SNB-75 CNS) was greater than 5950 nM.
